The subject of series [1] is BMDM. The series can be described thus: Antiinflammatory activity against LPS-stimulated mouse BMDM cells assessed as reduction in TNF production at 1 to 100 nM preincubated with compound for 8 hrs followed by LPS-induction and measured after 48 hrs by ELISA assay. The format is functional, cell-based. Particulars: dose 1-100 nM, time 56.0 hrs.
Series [2] deals with BMDM. As to the kind of experiment: Antiinflammatory activity against LPS-stimulated mouse BMDM cells assessed as reduction in IL-6 production at 1 to 100 nM preincubated with compound for 8 hrs followed by LPS-induction and measured after 48 hrs by ELISA assay. It is filed as functional, cell-based. Particulars: dose 1-100 nM, time 56.0 hrs.
The subject of series [3] is RAW264.7. The series can be described thus: Antiinflammatory activity against LPS-stimulated mouse RAW264.7 cells assessed as reduction in TNF production at 1 to 1000 nM preincubated with compound for 8 hrs followed by LPS-induction and measured after 48 hrs by ELISA based assay. Particulars: dose 1-1000 nM, time 56.0 hrs. It is filed as functional, cell-based.
The nature of series [4]: Cytotoxicity against LPS-stimulated mouse BMDM cells assessed as changes in cellular metabolism at 1 to 100 nM for 8 hrs by MTT assay. It is filed as toxicity, cell-based. To be noted: 0.1 µM, dose 1-100 nM.
Series [5] has as its system RAW264.7. As to the kind of experiment: Cytotoxicity against LPS-stimulated mouse RAW264.7 cells assessed as reduction in cellular metabolism at 10 uM incubated for 8 hrs by MTT assay. The format is toxicity, cell-based. Particulars: raw264.7, 8 h.
Series [6] has as its system RAW264.7. The series can be described thus: Cytotoxicity against LPS-stimulated mouse RAW264.7 cells assessed as reduction in cellular metabolism at 3.2 uM incubated for 8 hrs by MTT assay. It is filed as toxicity, cell-based. Particulars: raw264.7, 8 h.
For series [7], the system named is BMDM. The series can be described thus: Antiinflammatory activity against LPS-stimulated mouse BMDM cells assessed as induction of TNF production at 1 to 100 nM preincubated with compound for 8 hrs followed by LPS-induction and measured after 48 hrs by ELISA assay. It is filed as functional, cell-based. Particulars: dose 1-100 nM, time 56.0 hrs.
The nature of series [8]: Cytotoxicity against LPS-stimulated mouse BMDM cells assessed as reduction in cellular metabolism at 1 to 100 nM incubated for 8 hrs in presence of 500 ng/mL of LPS-stimulation by MTT assay. The format is toxicity, cell-based. Particulars: 0.1 µM, dose 1-100 nM.
In series [9] the test system is BMDM. The series can be described thus: Antiinflammatory activity against IFN-gamma and LPS-stimulated mouse BMDM cells assessed as reduction in IL-6 production at 1 to 100 nM primed with 20 U/mL of IFN-gamma followed by 200 ng/mL of LPS stimulation in presence of compound for 48 hrs by ELISA assay. To be noted: dose 1-100 nM. The format is functional, cell-based.

For series [10], the system named is BMDM. As to the kind of experiment: Antiinflammatory activity against IFN-gamma and LPS-stimulated mouse BMDM cells assessed as reduction in IL-12 production at 1 to 100 nM primed with 20 U/mL of IFN-gamma followed by 200 ng/mL of LPS stimulation in presence of compound for 48 hrs by ELISA assay. The format is functional, cell-based. Particulars: dose 1-100 nM.

Series [11] deals with BMDM. The series can be described thus: Antiinflammatory activity against LPS-stimulated mouse BMDM cells assessed as reduction IL-6 production at 1 to 100 nM preincubated with compound for 8 hrs followed by LPS-induction and measured after 48 hrs by ELISA assay. Particulars: dose 1-100 nM, time 56.0 hrs. It is filed as functional, cell-based.
In series [12] the test system is BMDM. As to the kind of experiment: Antiinflammatory activity against LPS-stimulated mouse BMDM cells assessed as reduction in IL-6 production at 10 to 100 nM preincubated with compound for 8 hrs followed by LPS-induction and measured after 48 hrs by ELISA assay. It is filed as functional, cell-based. To be noted: dose 10-100 nM, time 56.0 hrs.
For series [13], the system named is BMDM. As to the kind of experiment: Antiinflammatory activity against IFN-gamma and LPS-stimulated mouse BMDM cells assessed as change in IL-10 secretion at 1 to 100 nM primed with 20 U/mL of IFN-gamma followed by 200 ng/mL of LPS stimulation in presence of compound for 48 hour by ELISA assay. It is filed as functional, cell-based. To be noted: dose 1-100 nM.

A short description of series [14]: Cytotoxicity against IFN-gamma/LPS-stimulated mouse BMDM cells assessed as changes in cellular metabolism at 1 to 100 nM primed with 20 U/mL of IFN-gamma followed by 200 ng/mL of LPS stimulation in presence of compound at 1 to 100 nM for 48 hrs by MTT assay. The format is toxicity, cell-based. Particulars: 0.1 µM, dose 1-100 nM.
Series [15] concerns BMDM. The series can be described thus: Antiinflammatory activity against IFN-gamma and LPS-stimulated mouse BMDM cells assessed as change in NO production at 1 to 100 nM primed with 20 U/mL of IFN-gamma followed by 200 ng/mL of LPS stimulation in presence of compound for 48 hrs by […] assay. To be noted: dose 1-100 nM. It is filed as functional, cell-based.
The subject of series [16] is BMDM. The series can be described thus: Antiinflammatory activity against LPS-stimulated mouse BMDM cells assessed as reduction in TNF production preincubated with compound for 8 hrs followed by LPS-induction and measured after 48 hrs by ELISA assay. It is filed as functional, cell-based. To be noted: dose 1-100 nM, time 56.0 hrs.
The test system of series [17] is RAW264.7. As to the kind of experiment: Cytotoxicity against LPS-stimulated mouse RAW264.7 cells assessed as changes in cellular metabolism at 1 to 10000 nM incubated for 8 hrs by MTT assay. It is filed as toxicity, cell-based. Particulars: raw264.7, 8 h, 10 µM, dose 1-10000 nM.

Results on eight compounds are retold here after ChEMBL document CHEMBL6153035, “Natural and Semisynthetic Immunomodulatory Luakuliide Labdane Diterpenoids” (J Nat Prod, 2025).

The structures appear in SMILES notation. Activity calls are given as the source filed them. The calls are words filed in the database; no cut-off is given here.

As for `CC1(C)CCC[C@@]23[C@H](O)O[C@@](C)(CC[C@@H]12)[C@@H]3CCC1=CCN(CC(=O)O)C1=O`, the outcome in series [1], in [2] and in series [3] was Active. The Activity entry in series [4] is recorded as “Non-toxic”; in series [5], “Toxic”.

For `CC1=CC[C@H]2C(C)(C)CCC[C@]2(C=O)[C@H]1CCc1ccoc1`, the Activity result in series [6] is given as “Toxic”; in series [8], “Toxic”; in series [4] it was “Non-toxic”; in series [5], “Toxic”. For the same compound, the result in [7] was Active. Moreover, the outcome in series [3], in [9], in series [10] and in [11] was inactive.

As for `CC1=C(CCc2ccoc2)[C@@]2(C=O)CCCC(C)(C)[C@@H]2CC1`, the Activity result is “Toxic” in series [6], “Toxic” in series [8], “Non-toxic” in [4] and “Toxic” in [5]. The result in series [7] and in [12] was Active. Also, the result in series [3], in series [9] and in series [10] was inactive.

As for `CO[C@@H]1O[C@@]2(C)CC[C@H]3C(C)(C)CCC[C@@]13[C@H]2CCC1=CCOC1=O`, the result in series [13], in [7], in [9] and in series [10] was Active. Further, the Activity entry in [8] is recorded as “Toxic”; in series [14] it was “Toxic”; in series [4], “Non-toxic”; in series [5], “Toxic”. The outcome in [3] and in series [15] was inactive.

As for `CC1=C(CCC2=CCOC2=O)[C@@]2(C=O)CCCC(C)(C)[C@@H]2CC1`, the result in [13], in [12], in [9] and in [10] was Active. For the same compound, the Activity result in series [8] was “Toxic”; in [14], “Toxic”; in series [4], “Non-toxic”; in series [5] it was “Toxic”. For the same compound, the outcome in [3] and in series [15] was inactive.

`CC1=C(CCc2cc(Br)oc2Br)[C@@]2(C=O)CCCC(C)(C)[C@@H]2CC1`: the Activity entry in [6] was “Toxic”; in series [14], “Toxic”; in [16], “Dose-dependent-effect”; in series [4], “Non-toxic”; in series [5] it was “Toxic”. The outcome in series [13], in series [9] and in series [10] was Active. Moreover, the outcome in series [3], in series [11] and in [15] was inactive.

In the case of `CC1(C)CCC[C@@]23[C@H](O)O[C@@](C)(CC[C@@H]12)[C@@H]3CCc1ccoc1`, the result in series [7] was Active. Besides, the figures for the Activity entry in series [8], in [4] and in series [17] were “Toxic”, “Non-toxic” and “Non-toxic”, respectively. Besides, the result in series [3] was inactive.

With `CC(=O)O[C@@H]1O[C@@]2(C)CC[C@H]3C(C)(C)CCC[C@@]13[C@H]2CCc1ccoc1`, the Activity result in [6] and in [5] was “Toxic” throughout. Besides, the outcome in series [3] was Active.
